This note sets out measurements from PubChem BioAssay AID2060331 (Molecular Pharmacology Branch, DTP, NCI, 2025).

The experiment has as its system Hs578T multi-cell spheroids, viability. The experiment in a line: Anticancer human tumor Hs578T cell line growth inhibition [IpAb].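 On all read-outs here: drug exposure lasted 7 days before readout.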 The note with it: for viability, T/C: stronger effect = lower value. The procedure, abridged: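 Multi-cell spheroids of 60% tumour cells, 25% HUVEC and 15% MSC in ultra-low-attachment U-bottom wells, treated with agents combined with ipatasertib or abemaciclib. Half-log ranges top out near clinical Cmax, or 10 microM when Cmax is unknown.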

SMILES strings stand for the structures. “And” between values parts separate entries of the source, which are not always exact repeats. Equal entries are not always repeated.

A word on the viability, T/C: it is the ratio of treated to control. A word on the IC50: it is the concentration at which inhibition is half-maximal.

Take `CC(C)(C)c1cnc(CSc2cnc(NC(=O)C3CCNCC3)s2)o1`: the viability, T/C reads like this: (compound 0.00949 µM) 102% and 104%; (compound 0.03 µM) 113% and 114%; (compound 0.0949 µM) 122% and 107%; (compound 0.3 µM) 4.21% and 2.95%; (compound 0.949 µM) 2.73% and 3.15%; (compound 3 µM) 2.69% and 3.46%. Moreover, under “curve of compound”, the IC50 was 184 nM and 178 nM.

For the molecule `Cn1cnc2c(F)c(Nc3ccc(Br)cc3Cl)c(C(=O)NOCCO)cc21` + CCN1CCN(Cc2ccc(Nc3ncc(F)c(-c4cc(F)c5nc(C)n(C(C)C)c5c4)n3)nc2)CC1, the IC50 by setting is: (curve of first compound, second compound 0.01 µM) 2980 nM; (curve of first compound, second compound 0.0316 µM) 2000 nM; (curve of first compound, second compound 0.1 µM) 1470 nM; (curve of first compound, second compound 0.316 µM) 2020 nM; (curve of first compound, second compound 1 µM) more than 3000 nM. Besides, the viability, T/C was 98.5% (second compound 0.01 µM, first compound 0.00949 µM); 95% (second compound 0.01 µM, first compound 0.03 µM); 82.1% (second compound 0.01 µM, first compound 0.0949 µM); 87.5% (second compound 0.01 µM, first compound 0.3 µM); 69.4% (second compound 0.01 µM, first compound 0.949 µM); 49.2% (second compound 0.01 µM, first compound 3 µM). Also, the viability, T/C is, setting by setting: (second compound 0.0316 µM, first compound 0.00949 µM) 88.3%; (second compound 0.0316 µM, first compound 0.03 µM) 77%; (second compound 0.0316 µM, first compound 0.0949 µM) 72.2%; (second compound 0.0316 µM, first compound 0.3 µM) 79.4%; (second compound 0.0316 µM, first compound 0.949 µM) 67.1%; (second compound 0.0316 µM, first compound 3 µM) 40.8%. Moreover, the viability, T/C was 79.6% (second compound 0.1 µM, first compound 0.00949 µM); 70.6% (second compound 0.1 µM, first compound 0.03 µM); 77.7% (second compound 0.1 µM, first compound 0.0949 µM); 65.5% (second compound 0.1 µM, first compound 0.3 µM); 58.3% (second compound 0.1 µM, first compound 0.949 µM); 38.1% (second compound 0.1 µM, first compound 3 µM). Moreover, the viability, T/C (second compound 0.316 µM, first compound 0.00949 µM) was 77.3%; the viability, T/C (second compound 0.316 µM, first compound 0.03 µM) is 74%; the viability, T/C (second compound 0.316 µM, first compound 0.0949 µM) is 68.3%; the viability, T/C (second compound 0.316 µM, first compound 0.3 µM) is 68.3%; the viability, T/C (second compound 0.316 µM, first compound 0.949 µM) was 56.2%; the viability, T/C (second compound 0.316 µM, first compound 3 µM) is 46%. The viability, T/C was 89.8% (second compound 1 µM, first compound 0.00949 µM); 89.7% (second compound 1 µM, first compound 0.03 µM); 78.9% (second compound 1 µM, first compound 0.0949 µM); 75.3% (second compound 1 µM, first compound 0.3 µM); 69.2% (second compound 1 µM, first compound 0.949 µM); 53% (second compound 1 µM, first compound 3 µM).
